Assay results as given in PubChem BioAssay AID2060882 (Molecular Pharmacology Branch, DTP, NCI, 2025).

Test system: 898857-211-R-J1-PDC complex spheroids, growth % test/control
Assay: Anticancer human tumor 898857-211-R-J1-PDC patient-derived melanoma cell line growth inhibition [RAS]
Conditions: for IC50: curve of first compound; for viability, T/C: stronger effect = lower value
In short: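 Multi-cell-type spheroids: tumor cells plus HUVEC endothelial cells and mesenchymal stem cells. RAS-pathway inhibitors were combined with targeted agents, each dosed in half-log steps down from clinical Cmax, or from 10 microM when Cmax was unknown.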
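Also: spheroids exposed to compound for seven days before readout.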
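For viability, T/C in this document: 100% = DMSO vehicle control wells.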

IC50 (second compound 0.000949 µM): 5.13 nM
IC50 (second compound 0.003 µM): 4.91 nM
IC50 (second compound 0.00949 µM): 4.21 nM
IC50 (second compound 0.03 µM): 3.8 nM
IC50 (second compound 0.0949 µM): 3.54 nM
IC50 (second compound 0.3 µM): 2.75 nM
Compound: CCc1c2c(nc3ccc(O)cc13)-c1cc3c(c(=O)n1C2)COC(=O)[C@]3(O)CC + CCn1c(-c2cccnc2C(C)OC)c2c3cc(ccc31)N1CCOC(CC(NC(=O)C(C(C)C)N(C)C(=O)C3(F)CCN(C(=O)C#CC(C)(C)N(C)C)CC3)C(=O)N3CCCC(N3)C(=O)OCC(C)(C)C2)C1
viability, T/C (second compound 0.000949 µM, first compound 0.000949 µM): 103%
viability, T/C (second compound 0.000949 µM, first compound 0.003 µM): 66.7%
viability, T/C (second compound 0.000949 µM, first compound 0.00949 µM): 31.6%
viability, T/C (second compound 0.000949 µM, first compound 0.03 µM): 10.2%
viability, T/C (second compound 0.000949 µM, first compound 0.0949 µM): 7.77%
viability, T/C (second compound 0.000949 µM, first compound 0.3 µM): 6.78%
viability, T/C (second compound 0.003 µM, first compound 0.000949 µM): 92.2%
viability, T/C (second compound 0.003 µM, first compound 0.003 µM): 64.1%
viability, T/C (second compound 0.003 µM, first compound 0.00949 µM): 31.5%
viability, T/C (second compound 0.003 µM, first compound 0.03 µM): 11.2%
viability, T/C (second compound 0.003 µM, first compound 0.0949 µM): 6.86%
viability, T/C (second compound 0.003 µM, first compound 0.3 µM): 5.62%
viability, T/C (second compound 0.00949 µM, first compound 0.000949 µM): 91.5%
viability, T/C (second compound 0.00949 µM, first compound 0.003 µM): 58.2%
viability, T/C (second compound 0.00949 µM, first compound 0.00949 µM): 30.2%
viability, T/C (second compound 0.00949 µM, first compound 0.03 µM): 11.7%
viability, T/C (second compound 0.00949 µM, first compound 0.0949 µM): 6.64%
viability, T/C (second compound 0.00949 µM, first compound 0.3 µM): 7.62%
viability, T/C (second compound 0.03 µM, first compound 0.000949 µM): 88.5%
viability, T/C (second compound 0.03 µM, first compound 0.003 µM): 55.3%
viability, T/C (second compound 0.03 µM, first compound 0.00949 µM): 28.3%
viability, T/C (second compound 0.03 µM, first compound 0.03 µM): 9.56%
viability, T/C (second compound 0.03 µM, first compound 0.0949 µM): 7.6%
viability, T/C (second compound 0.03 µM, first compound 0.3 µM): 5.55%
viability, T/C (second compound 0.0949 µM, first compound 0.000949 µM): 77.6%
viability, T/C (second compound 0.0949 µM, first compound 0.003 µM): 52.6%
viability, T/C (second compound 0.0949 µM, first compound 0.00949 µM): 29.5%
viability, T/C (second compound 0.0949 µM, first compound 0.03 µM): 8.59%
viability, T/C (second compound 0.0949 µM, first compound 0.0949 µM): 6.88%
viability, T/C (second compound 0.0949 µM, first compound 0.3 µM): 5.75%
viability, T/C (second compound 0.3 µM, first compound 0.000949 µM): 65.3%
viability, T/C (second compound 0.3 µM, first compound 0.003 µM): 48.6%
viability, T/C (second compound 0.3 µM, first compound 0.00949 µM): 20.1%
viability, T/C (second compound 0.3 µM, first compound 0.03 µM): 7.15%
viability, T/C (second compound 0.3 µM, first compound 0.0949 µM): 8.16%
viability, T/C (second compound 0.3 µM, first compound 0.3 µM): 5.2%
